In PubChem BioAssay (NCI):
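How tested: cells in 96-well plates exposed to compound for 48 hours at five concentrations. TGI: concentration producing complete growth inhibition.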

Key:
Assay in all cases: growth of human tumour cells (NCI), 48 h
COLO 205 colon = tested on: COLO 205 colon
786-0 renal = tested on: 786-0 renal
SF-268 CNS = tested on: SF-268 CNS
A549 NSCLC = tested on: A549 NSCLC
ACHN renal = tested on: ACHN renal
SNB-19 CNS = tested on: SNB-19 CNS
NCI-H522 lung = tested on: NCI-H522 lung
SW-620 colon = tested on: SW-620 colon
NCI-H226 lung = tested on: NCI-H226 lung
SK-MEL-2 melanoma = tested on: SK-MEL-2 melanoma
SR leukemia = tested on: SR leukemia
CCRF-CEM leukemia = tested on: CCRF-CEM leukemia
HT29 colon = tested on: HT29 colon
M19-MEL melanoma = tested on: M19-MEL melanoma
KM12 colon = tested on: KM12 colon
OVCAR-3 ovarian = tested on: OVCAR-3 ovarian
U251 CNS = tested on: U251 CNS
HOP-92 NSCLC = tested on: HOP-92 NSCLC
UO-31 renal = tested on: UO-31 renal
TK-10 renal = tested on: TK-10 renal
XF 498 CNS = tested on: XF 498 CNS
MOLT-4 leukemia = tested on: MOLT-4 leukemia
RPMI-8226 leukemia = tested on: RPMI-8226 leukemia
KM20L2 colon = tested on: KM20L2 colon
SF-539 CNS = tested on: SF-539 CNS
NCI-H460 lung = tested on: NCI-H460 lung
HCC-2998 colon = tested on: HCC-2998 colon
LOX IMVI melanoma = tested on: LOX IMVI melanoma
EKVX NSCLC = tested on: EKVX NSCLC
SK-MEL-28 melanoma = tested on: SK-MEL-28 melanoma
IGROV1 ovarian = tested on: IGROV1 ovarian
MALME-3M melanoma = tested on: MALME-3M melanoma
HL-60(TB) leukemia = tested on: HL-60(TB) leukemia
DLD-1 colon = tested on: DLD-1 colon
UACC-62 melanoma = tested on: UACC-62 melanoma
SK-OV-3 ovarian = tested on: SK-OV-3 ovarian
SF-295 CNS = tested on: SF-295 CNS
DMS 273 small cell lung = tested on: DMS 273 small cell lung
K-562 leukemia = tested on: K-562 leukemia
LXFL 529 NSCLC = tested on: LXFL 529 NSCLC
SN12C renal = tested on: SN12C renal
RXF 393 renal = tested on: RXF 393 renal
M14 melanoma = tested on: M14 melanoma
OVCAR-8 ovarian = tested on: OVCAR-8 ovarian
UACC-257 melanoma = tested on: UACC-257 melanoma
SNB-75 CNS = tested on: SNB-75 CNS
HCT-116 colon = tested on: HCT-116 colon
HOP-62 NSCLC = tested on: HOP-62 NSCLC
HOP-18 NSCLC = tested on: HOP-18 NSCLC
DMS 114 small cell lung = tested on: DMS 114 small cell lung
SNB-78 CNS = tested on: SNB-78 CNS
NCI-H23 lung = tested on: NCI-H23 lung
A498 renal = tested on: A498 renal
OVCAR-5 ovarian = tested on: OVCAR-5 ovarian
CAKI-1 renal = tested on: CAKI-1 renal
SK-MEL-5 melanoma = tested on: SK-MEL-5 melanoma
HCT-15 colon = tested on: HCT-15 colon

Measured: TGI

Cc1nc2nnnn2c2c1C(=O)Nc1ccccc1N2
not listed: A498 renal | OVCAR-5 ovarian | CAKI-1 renal | SK-MEL-5 melanoma | HCT-15 colon
> 100 µM: all other assays above

CC(C)(Oc1ccc(C(=O)c2ccc(Cl)cc2)cc1Cl)C(=O)Nc1c(Cl)cccc1Cl
not listed: COLO 205 colon | ACHN renal | NCI-H226 lung | HCC-2998 colon | SN12C renal | SNB-75 CNS
> 100 µM: all other assays above
